# Data taken from US20110028509A1, “Sulfonamides” (MERCK SERONO SA, priority 2008, published 2011).
# Target: T1, CXCR3 (Homo sapiens, UniProt P49682)
# T1 sequence (P49682 1-368): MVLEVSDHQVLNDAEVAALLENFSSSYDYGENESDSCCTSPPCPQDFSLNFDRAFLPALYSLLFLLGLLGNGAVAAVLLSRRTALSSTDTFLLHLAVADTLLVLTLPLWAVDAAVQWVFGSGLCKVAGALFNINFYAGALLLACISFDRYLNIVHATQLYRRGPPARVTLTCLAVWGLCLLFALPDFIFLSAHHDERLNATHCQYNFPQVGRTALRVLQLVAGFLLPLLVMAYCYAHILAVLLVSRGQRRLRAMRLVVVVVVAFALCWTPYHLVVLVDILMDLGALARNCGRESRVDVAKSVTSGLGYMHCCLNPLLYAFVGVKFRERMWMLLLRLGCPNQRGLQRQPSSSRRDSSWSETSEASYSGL
# Assay: CXCR3 Ca2+ mobilization (FLIPR), stable hCXCR3-CHO cell line, I-TAC stimulated
# Assay type: cell-based
# Parameters: host or cells: CHO cells stably expressing hCXCR3
# Conditions: hCXCR3-CHO cells, I-TAC 100 nM stimulated Ca2+ response; read-out: Ca-ITAC
# Method: Human chinese hamster ovary (CHO) cell line stably expressing hCXCR3 was purchased from Euroscreen (Belgium) and culture in HAM's F12 (Invitrogen) containing 10% heat inactivated fetal calf serum (Cancerra, Australia), 50 units ml−1 penicillin, 50 μml−1 streptomycin, (Invitrogen, USA) and 400 μg/ml geneticin (G418) (Calbiochem, San Diego), according to the manufacturer.
# CXCR3Ca^2+ mobilization was measured using a stable hCXCR3—CHO cell line and a microtiter-plate based assay using FLIPR^TETRA™ (Molecular Devices). In more detail, cells were harvested and plated into black 384-well plates (Becton-Dickinson) at a density of 15 000 cells per well and grown in the incubator for 18 hours. On the next day the media was aspirated and replaced with the cell loading buffer (HBSS—(Invitrogen) based buffer containing calcium indicator and signal enhancer from a commercial Ca2+ assay kit (Becton Dickinson). The plates were incubated for 60 minutes in the incubator, the test compounds were added and the plates equilibrated for 20 minutes at room temperature.
# Plates were placed into FLIPR and the CXCR3 agonist (I-TAC, 100 nM) stimulated fluorescence change was quantitated. The activity of CXCR3 antagonists was determined as percent of the CXCR3 ligand I-TAC in the absence of the test compounds (=100% activity).
row,IC50 [µM],Structure (SMILES)
1,0.75,N#Cc1ccc(S(=O)(=O)N(Cc2ccc(C(=O)NCCc3cccc(Cl)c3)cc2)Cc2cccnc2)cc1 [Example 110]
2,16,"O=S(=O)(c1ccc(Cl)cc1)N(Cc1ccc(-c2nnn[nH]2)cc1)Cc1cccnc1 [Example 71, 4-chloro-N-(pyridin-3-ylmethyl)-N-[4-(2H-tetrazol-5yl)benzyl]benzene sulfonamide]"
3,0.3,CC(=O)NC(C(=O)Nc1ccc(CN(Cc2ccccn2)S(=O)(=O)c2ccc(Cl)cc2)cc1)c1ccccc1 (centres unmarked) [Example 185]
4,0.3,COC(=O)c1ccc(S(=O)(=O)N(Cc2ccc(C(=O)NC3(c4ccccc4)CC3)cc2)Cc2ccccn2)cc1 [Example 150]
5,8.3,"CS(=O)(=O)NC(=O)c1ccc(CN(Cc2ccccn2)S(=O)(=O)c2ccc(Cl)cc2)cc1 [Example 48, N-(methanesulfonyl)-4{[[(4-chlorophenyl)sulfonyl](pyridin-2-ylmethyl)amino]methyl}benzamide]"
6,9,CCOc1ccc(S(=O)(=O)N(Cc2ccc(N3CCOCC3)cc2)Cc2ccccn2)cc1 [Example 269]
7,7,"N#Cc1ccc(C(=O)N(Cc2ccccn2)S(=O)(=O)c2ccc(Cl)cc2)cc1 [Example 281, 4-Chloro-N-(4-cyano-benzoyl)-N-pyridin-2-ylmethyl-benzenesulfonamide]"
8,1.6,O=S(=O)(c1ccc(Cl)cc1)N(Cc1ccccc1)Cc1ccccc1-c1nnn[nH]1 [Example 229]
9,5,O=C(NC1(c2ccc(OC(F)(F)F)cc2)CC1)c1ccc(CN(Cc2ccccn2)S(=O)(=O)c2ccc(Cl)cc2)cc1 [Example 131]
10,1.5,CC(CCc1ccccc1)N(Cc1ccc(-c2nnn[nH]2)cc1)S(=O)(=O)c1ccc(Cl)cc1 (centres unmarked) [Example 224]
11,1.9,CCOC(=O)c1ccc(CN(Cc2cccnc2)S(=O)(=O)c2ccc(C#N)cc2)cc1 [Example 156]
12,11,"CCS(=O)(=O)NC(=O)c1ccc(CN(Cc2ccccn2)S(=O)(=O)c2ccc(Cl)cc2)cc1 [Example 55, N-(ethanesulfonyl)-4-{[[(4-chlorophenyl)sulfonyl](pyridin-2-yl-methyl)amino]methyl}benzamide]"
13,1.7,CCOc1ccc(S(=O)(=O)N(Cc2ccc(C(=O)NCC(C)c3ccccc3)cc2)Cc2ccccn2)cc1 (centres unmarked) [Example 86]
14,1.45,CC(C)(C)c1ccc(S(=O)(=O)N(Cc2ccc(C#N)cc2)Cc2ccccn2)cc1 [Example 177]
15,5,CC(c1cccc(-c2nnn[nH]2)c1)N(Cc1ccccc1)S(=O)(=O)c1ccc(Cl)cc1 (centres unmarked) [Example 271]
16,0.15,O=C(NC(C(=O)O)c1ccccc1)c1ccc(CN(Cc2ccccn2)S(=O)(=O)c2ccc(Cl)cc2)cc1 (centres unmarked) [Example 151]
17,3.33,C[C@H](c1ccc(NC(=O)C2(c3ccccc3)CC2)cc1)N(Cc1ccccn1)S(=O)(=O)c1ccc(Cl)cc1 [Example 168]
18,1.5,N#Cc1ccc(S(=O)(=O)N(Cc2ccc(C(=O)NC3(c4cccc(C#N)c4)CC3)cc2)Cc2cccnc2)cc1 [Example 111]
19,5,CC(CN(Cc1ccc(-c2nnn[nH]2)cc1)S(=O)(=O)c1ccc(Cl)cc1)c1ccccc1 (centres unmarked) [Example 227]
20,6,CCOc1ccc(S(=O)(=O)N(Cc2ccc(C(=O)OC)c(O)c2)Cc2ccccn2)cc1 [Example 353]
21,2,O=[N+]([O-])c1ccc(S(=O)(=O)N(Cc2ccc(-c3nnn[nH]3)cc2)Cc2ccccn2)cc1 [Example 140]
22,3.1,N#Cc1ccc(CN(CCCc2ccccc2)S(=O)(=O)c2ccc(Cl)cc2)cc1 [Example 198]

row,IC50 [µM],Structure (SMILES)
1,4.5,CCOc1ccc(S(=O)(=O)N(Cc2ccc(C(=O)NCC(C)c3ccccc3)cc2)Cc2cccnc2)cc1 (centres unmarked) [Example 206]
2,5,N#Cc1ccc(CN(Cc2ccccn2)S(=O)(=O)c2ccccc2Cl)cc1 [Example 186]
3,5.6,"O=C(NS(=O)(=O)C1CC1)c1ccc(CN(Cc2ccccn2)S(=O)(=O)c2ccc(Cl)cc2)cc1 [Example 49, N-(cyclopropanesulfonyl)-4-{[[(4-chlorophenyl)sulfonyl](pyridin-2-ylmethyl)amino]methyl}benzamide]"
4,3,"O=S(=O)(c1ccc(Cl)cc1)N(Cc1ccc(-c2nnn[nH]2)cc1)Cc1ccc(Cl)cc1F [Example 70, 4-chloro-N-(2-fluoro-4-chlorobenzyl)-N-[4-(2H-tetrazol-5yl)benzyl]benzene sulfonamide]"
5,2,COc1cccc(S(=O)(=O)N(Cc2ccc(C#N)cc2)Cc2ccccn2)c1 [Example 178]
6,1.1,O=S(=O)(c1cccc(Oc2ccccc2)c1)N(Cc1ccc(-c2nnn[nH]2)cc1)Cc1ccccn1 [Example 165]
7,18,COC(=O)C(Cc1ccc(O)cc1)NC(=O)c1ccc(CN(Cc2ccccn2)S(=O)(=O)c2ccc(Cl)cc2)cc1 (centres unmarked) [Example 345]
8,3,CC(C)(Cc1ccccc1)N(Cc1ccc(-c2nnn[nH]2)cc1)S(=O)(=O)c1ccc(Cl)cc1 [Example 236]
9,0.04,COC(C(=O)Nc1ccc(CN(Cc2ccccn2)S(=O)(=O)c2ccc(Cl)cc2)cc1)c1ccccc1 (centres unmarked) [Example 182]
10,2,O=S(=O)(c1ccc(OC(F)(F)F)cc1)N(Cc1ccccc1)Cc1ccc(-c2nnn[nH]2)cc1 [Example 115]
11,1.95,CC(c1ccc(-c2nnn[nH]2)cc1)N(Cc1ccccc1)S(=O)(=O)c1ccc(Cl)cc1 (centres unmarked) [Example 171]
12,1.2,N#Cc1cccc(CN(Cc2ccccc2)S(=O)(=O)c2ccc(Cl)cc2)c1 [Example 230]
13,10,Cc1cccc(S(=O)(=O)N(Cc2ccc(-c3nnn[nH]3)cc2)Cc2ccccn2)c1 [Example 311]
14,1.9,COc1ccc(S(=O)(=O)N(Cc2ccccc2)Cc2ccc(C(=O)NCc3ccccc3)cc2)cc1 [Example 31]
15,1,CC(C)(C)OC(=O)N[C@@H](C(=O)Nc1ccc(CN(Cc2ccccn2)S(=O)(=O)c2ccc(Cl)cc2)cc1)c1ccccc1 [Example 180]
16,1.8,"O=C(NCc1ccccc1)c1ccc(CN(Cc2ccc(F)cc2)S(=O)(=O)c2ccc(Cl)cc2)cc1 [Example 34, 4-{[[(4-chlorophenyl)sulfonyl](4-fluorobenzyl)amino]methyl}-N-phenyl methyl benzamide]"
17,3.9,O=C(NCc1ccccc1)c1ccc(CN(Cc2ccccc2)S(=O)(=O)c2ccc(F)cc2)cc1 [Example 32]
18,9.5,O=S(=O)(c1ccccc1-c1ccccc1)N(Cc1ccc(-c2nnn[nH]2)cc1)Cc1ccccn1 [Example 253]
19,6,O=C(NC(Cc1ccc(O)cc1)C(=O)O)c1ccc(CN(Cc2ccccn2)S(=O)(=O)c2ccc(Cl)cc2)cc1 (centres unmarked) [Example 354]
20,0.14,CCOC(=O)C1(NC(=O)c2ccc(CN(Cc3ccccn3)S(=O)(=O)c3ccc(C#N)cc3)cc2)CC1 [Example 144]
21,4,CCOC(=O)c1ccc(CN(Cc2cccnc2)S(=O)(=O)c2ccc(Cl)cc2)cc1 [Example 159]

# Target: T1, CXCR3
# Assay: Chemotaxis assay ITAC (CXCL11), L1.2-CXCR3 cells
# Assay type: cell-based
# Parameters: expressed in transfected cells
# Conditions: 1 nM CXCL11 (I-TAC), 4 hours
# Method: Human CXCR3 cDNA was amplified by PCR from a human cells cDNA library (Clontech) and subcloned into pcDNA3.1 (Invitrogen). Murine pre-B L1.2 cells were transfected with hCXCR3-pcDNA3.1 and were grown at 37° C., 5% CO2 in RPMI 1640 medium (Invitrogen, USA) supplemented with 5% heat inactivated fetal calf serum (Cancerra, Australia), 2 mM glutamine (Invitrogen), 50 units ml−1 penicillin, 50 μml−1 streptomycin. Stable transfectant clonal populations were selected using 800 μg/ml geneticin.
# L1.2-CXCR3 cells were grown for 24 hours at 0.5×10^6 cells/ml in chemotaxis medium containing 5 mM butyric acid (Sigma). Compounds were on one hand mixed with 1 nM of CXCL11 (I-TAC) in phenol-red free RPMI 1640 (invitrogen) supplemented with 5% fetal bovine serum in presence of 1% DMSO. The CXCL11/compounds mixture was then added to lower chambers of chemotaxis 96 well microplates (neuroprobe), and framed filters ([…] pore size) were put on top of the lower chambers. Compounds were on the other hand mixed with L1.2 CXCR3 cells and incubated in chemotaxis medium at 1.5×10^6 cells/ml in presence of 1% DMSO at 37° C., 5% CO2 for 30 minutes. Cells/compounds mixture was then added on top of the frame filters and migration was performed at 37° C., 5% CO2 for 4 hours. The number of migrated cells in the bottom chamber was determined using the CyQuant GR dye (Molecular Probe), according to the manufacturer.
row,IC50 [µM],Structure (SMILES)
1,0.39,N#Cc1ccc(S(=O)(=O)N(Cc2ccc(C(=O)NCCc3cccc(Cl)c3)cc2)Cc2cccnc2)cc1 [Example 110]
2,1.54,"O=S(=O)(c1ccc(Cl)cc1)N(Cc1ccc(-c2nnn[nH]2)cc1)Cc1cccnc1 [Example 71, 4-chloro-N-(pyridin-3-ylmethyl)-N-[4-(2H-tetrazol-5yl)benzyl]benzene sulfonamide]"
3,0.03,CC(=O)NC(C(=O)Nc1ccc(CN(Cc2ccccn2)S(=O)(=O)c2ccc(Cl)cc2)cc1)c1ccccc1 (centres unmarked) [Example 185]
4,0.01,COC(=O)c1ccc(S(=O)(=O)N(Cc2ccc(C(=O)NC3(c4ccccc4)CC3)cc2)Cc2ccccn2)cc1 [Example 150]
5,2.98,"O=C(NCC1CC1)c1ccc(CN(Cc2cccc[n+]2[O-])S(=O)(=O)c2ccc(Cl)cc2)cc1 [Example 134, 4-{[(4-Chloro-benzenesulfonyl)-(1-oxy-pyridin-2-ylmethyl)-amino]-methyl}-N-cyclopropylmethyl-benzamide]"
6,4.27,C[C@@H](c1ccc(NC(=O)C2(c3ccccc3)CC2)cc1)N(Cc1ccccn1)S(=O)(=O)c1ccc(Cl)cc1 [Example 164]
7,4.45,N#Cc1ccc(S(=O)(=O)N(Cc2ccccn2)C2(c3ccc(C(=O)NC4(c5ccccc5)CC4)cc3)CC2)cc1 [Example 176]
